Experimental data: paper PMC7948503, “Optimization of a peptide ligand for the adhesion GPCR ADGRG2 provides a potent tool to explore receptor biology” (The Journal of Biological Chemistry, 2020)
Non-standard residues stand in square brackets, D forms with d. Residues, ends and D or L forms follow the SMILES beside them. Phe(4-Me) = Cc1ccc(C[C@H](N)C(=O)O)cc1

What was measured:
Assay in all cases: GloSensor cAMP assay
Assay type in all cases: cell-based
ADGRG2-ΔGPS-β F826A = molecular target: T1, ADGRG2-ΔGPS-β F826A (Mus musculus, UniProt Q8CJ12, F840A); conditions: mutant F826A; HEK293, cAMP Glosensor
T1 construct: expressed in transfected cells; host or cells: HEK293
Source text: (§1) Wildtype ADGRG2 full-length (ADGRG2-FL) was cloned from mouse total cDNA libraries using the following primers: forward, […]; reverse, […], and then ADGRG2-FL, ADGRG2 C-terminal truncation mutant (ADGRG2-β), and ADGRG2-ΔGPS-β (the entire ECD of ADGRG2 was deleted) were subcloned into the pcDNA3.1 expression vector. The ADGRG2-ΔGPS-β mutants (T610A, Y611A, C614A, S661A, W662A, I663A, L665A, Y666A，N667A, F671A, L679A, L683A, I730A, V731A, F741A, F747A, W757A, I758A, N759A, S760A, V762A, F764A, Y765A, V768A, V769A, F772A, V774A, W824A, F826A, F828A, F829A, V834A, V836A, F838A, M839A, I844A, F845A) were generated using a QuikChange Mutagenesis Kit (Stratagene). All mutations were verified by DNA sequencing.
(§2) The Glosensor cAMP assay was performed as described ([6], [39], [40]). HEK293 cells were transfected with the GloSensor plasmid and the desired expression plasmids in 24-well dishes. Twenty-four hours after transfection, the cells were plated on 96-well plates at a cell density of 20,000 cells/well. The cells were maintained in Dulbecco’s modified Eagle’s medium for another 24 h, washed with PBS, and then incubated with 100 μl of solution containing 10% fetal bovine serum, 2% (v/v) GloSensor cAMP reagent, and 88% CO2-independent medium in each well for 2 h. The cAMP signal was examined using a luminescence counter (Mithras LB 940).

ADGRG2-ΔGPS-β F829A = molecular target: T2, ADGRG2-ΔGPS-β F829A (Mus musculus, UniProt Q8CJ12, F843A); conditions: mutant F829A; HEK293, cAMP Glosensor
T2 construct: expressed in transfected cells; host or cells: HEK293
Source text: as §1, §2

ADGRG2-ΔGPS-β F845A = molecular target: T3, ADGRG2-ΔGPS-β F845A (Mus musculus, UniProt Q8CJ12, F859A); conditions: mutant F845A; HEK293, cAMP Glosensor
T3 construct: expressed in transfected cells; host or cells: HEK293
Source text: as §1, §2

ADGRG2-ΔGPS-β I663A = molecular target: T4, ADGRG2-ΔGPS-β I663A (Mus musculus, UniProt Q8CJ12, I677A); conditions: mutant I663A; HEK293, cAMP Glosensor
T4 construct: expressed in transfected cells; host or cells: HEK293
Source text: as §1, §2

ADGRG2-ΔGPS-β I730A = molecular target: T5, ADGRG2-ΔGPS-β I730A (Mus musculus, UniProt Q8CJ12, I744A); conditions: mutant I730A; HEK293, cAMP Glosensor
T5 construct: expressed in transfected cells; host or cells: HEK293
Source text: as §1, §2

ADGRG2-ΔGPS-β I741A = molecular target: T6, ADGRG2-ΔGPS-β I741A (Mus musculus, UniProt Q8CJ12, I755A); conditions: mutant I741A; HEK293, cAMP Glosensor
T6 construct: expressed in transfected cells; host or cells: HEK293
Source text: as §1, §2

ADGRG2-ΔGPS-β I758A = molecular target: T7, ADGRG2-ΔGPS-β I758A (Mus musculus, UniProt Q8CJ12, I772A); conditions: mutant I758A; HEK293, cAMP Glosensor
T7 construct: expressed in transfected cells; host or cells: HEK293
Source text: as §1, §2

ADGRG2-ΔGPS-β I844A = molecular target: T8, ADGRG2-ΔGPS-β I844A (Mus musculus, UniProt Q8CJ12, I858A); conditions: mutant I844A; HEK293, cAMP Glosensor
T8 construct: expressed in transfected cells; host or cells: HEK293
Source text: as §1, §2

ADGRG2-ΔGPS-β L665A = molecular target: T9, ADGRG2-ΔGPS-β L665A (Mus musculus, UniProt Q8CJ12, L679A); conditions: mutant L665A; HEK293, cAMP Glosensor
T9 construct: expressed in transfected cells; host or cells: HEK293
Source text: as §1, §2

ADGRG2-ΔGPS-β L679A = molecular target: T10, ADGRG2-ΔGPS-β L679A (Mus musculus, UniProt Q8CJ12, L693A); conditions: mutant L679A; HEK293, cAMP Glosensor
T10 construct: expressed in transfected cells; host or cells: HEK293
Source text: as §1, §2

ADGRG2-ΔGPS-β L683A = molecular target: T11, ADGRG2-ΔGPS-β L683A (Mus musculus, UniProt Q8CJ12, L697A); conditions: mutant L683A; HEK293, cAMP Glosensor
T11 construct: expressed in transfected cells; host or cells: HEK293
Source text: as §1, §2

ADGRG2-ΔGPS-β M839A = molecular target: T12, ADGRG2-ΔGPS-β M839A (Mus musculus, UniProt Q8CJ12, M853A); conditions: mutant M839A; HEK293, cAMP Glosensor
T12 construct: expressed in transfected cells; host or cells: HEK293
Source text: as §1, §2

ADGRG2-ΔGPS-β N759A = molecular target: T13, ADGRG2-ΔGPS-β N759A (Mus musculus, UniProt Q8CJ12, N773A); conditions: mutant N759A; HEK293, cAMP Glosensor
T13 construct: expressed in transfected cells; host or cells: HEK293
Source text: as §1, §2

ADGRG2-ΔGPS-β S661A = molecular target: T14, ADGRG2-ΔGPS-β S661A (Mus musculus, UniProt Q8CJ12, S675A); conditions: mutant S661A; HEK293, cAMP Glosensor
T14 construct: expressed in transfected cells; host or cells: HEK293
Source text: as §1, §2

ADGRG2-ΔGPS-β S760A = molecular target: T15, ADGRG2-ΔGPS-β S760A (Mus musculus, UniProt Q8CJ12, S774A); conditions: mutant S760A; HEK293, cAMP Glosensor
T15 construct: expressed in transfected cells; host or cells: HEK293
Source text: as §1, §2

ADGRG2-ΔGPS-β V731A = molecular target: T16, ADGRG2-ΔGPS-β V731A (Mus musculus, UniProt Q8CJ12, V745A); conditions: mutant V731A; HEK293, cAMP Glosensor
T16 construct: expressed in transfected cells; host or cells: HEK293
Source text: as §1, §2

ADGRG2-ΔGPS-β V762A = molecular target: T17, ADGRG2-ΔGPS-β V762A (Mus musculus, UniProt Q8CJ12, V776A); conditions: mutant V762A; HEK293, cAMP Glosensor
T17 construct: expressed in transfected cells; host or cells: HEK293
Source text: as §1, §2

ADGRG2-ΔGPS-β V774A = molecular target: T18, ADGRG2-ΔGPS-β V774A (Mus musculus, UniProt Q8CJ12, V788A); conditions: mutant V774A; HEK293, cAMP Glosensor
T18 construct: expressed in transfected cells; host or cells: HEK293
Source text: as §1, §2

ADGRG2-ΔGPS-β V834A = molecular target: T19, ADGRG2-ΔGPS-β V834A (Mus musculus, UniProt Q8CJ12, V848A); conditions: mutant V834A; HEK293, cAMP Glosensor
T19 construct: expressed in transfected cells; host or cells: HEK293
Source text: as §1, §2

ADGRG2-ΔGPS-β Y666A = molecular target: T20, ADGRG2-ΔGPS-β Y666A (Mus musculus, UniProt Q8CJ12, Y680A); conditions: mutant Y666A; HEK293, cAMP Glosensor
T20 construct: expressed in transfected cells; host or cells: HEK293
Source text: as §1, §2

T11 sequence (Q8CJ12 614-1009 L697A): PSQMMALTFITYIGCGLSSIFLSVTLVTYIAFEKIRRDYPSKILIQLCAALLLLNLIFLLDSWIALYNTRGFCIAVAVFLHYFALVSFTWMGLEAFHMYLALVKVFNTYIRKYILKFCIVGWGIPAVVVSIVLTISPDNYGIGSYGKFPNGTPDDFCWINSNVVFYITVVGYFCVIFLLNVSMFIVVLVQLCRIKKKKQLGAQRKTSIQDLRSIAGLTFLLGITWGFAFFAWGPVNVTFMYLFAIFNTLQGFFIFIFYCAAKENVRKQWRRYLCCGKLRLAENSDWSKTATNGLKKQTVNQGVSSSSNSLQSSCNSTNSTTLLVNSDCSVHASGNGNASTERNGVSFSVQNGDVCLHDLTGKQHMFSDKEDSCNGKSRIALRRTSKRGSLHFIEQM
T8 sequence (Q8CJ12 614-1009 I858A): as the sequence (Q8CJ12 614-1009 L697A) above, with A84L, I245A counted along it
T18 sequence (Q8CJ12 614-1009 V788A limits assumed): as the sequence (Q8CJ12 614-1009 L697A) above, with A84L, V175A counted along it
T12 sequence (Q8CJ12 614-1009 M853A): as the sequence (Q8CJ12 614-1009 L697A) above, with A84L, M240A counted along it
T6 sequence (Q8CJ12 614-1009 I755A): as the sequence (Q8CJ12 614-1009 L697A) above, with A84L, I142A counted along it
T20 sequence (Q8CJ12 614-1009 Y680A): as the sequence (Q8CJ12 614-1009 L697A) above, with Y67A, A84L counted along it
T2 sequence (Q8CJ12 614-1009 F843A): as the sequence (Q8CJ12 614-1009 L697A) above, with A84L, F230A counted along it
T1 sequence (Q8CJ12 614-1009 F840A): as the sequence (Q8CJ12 614-1009 L697A) above, with A84L, F227A counted along it
T5 sequence (Q8CJ12 614-1009 I744A): as the sequence (Q8CJ12 614-1009 L697A) above, with A84L, I131A counted along it
T14 sequence (Q8CJ12 614-1009 S675A): as the sequence (Q8CJ12 614-1009 L697A) above, with S62A, A84L counted along it
T7 sequence (Q8CJ12 614-1009 I772A): as the sequence (Q8CJ12 614-1009 L697A) above, with A84L, I159A counted along it
T17 sequence (Q8CJ12 614-1009 V776A): as the sequence (Q8CJ12 614-1009 L697A) above, with A84L, V163A counted along it
T13 sequence (Q8CJ12 614-1009 N773A): as the sequence (Q8CJ12 614-1009 L697A) above, with A84L, N160A counted along it
T15 sequence (Q8CJ12 614-1009 S774A): as the sequence (Q8CJ12 614-1009 L697A) above, with A84L, S161A counted along it
T16 sequence (Q8CJ12 614-1009 V745A): as the sequence (Q8CJ12 614-1009 L697A) above, with A84L, V132A counted along it
T19 sequence (Q8CJ12 614-1009 V848A): as the sequence (Q8CJ12 614-1009 L697A) above, with A84L, V235A counted along it
T10 sequence (Q8CJ12 614-1009 L693A): as the sequence (Q8CJ12 614-1009 L697A) above, with L80A, A84L counted along it
T9 sequence (Q8CJ12 614-1009 L679A): as the sequence (Q8CJ12 614-1009 L697A) above, with L66A, A84L counted along it
T3 sequence (Q8CJ12 614-1009 F859A limits assumed): as the sequence (Q8CJ12 614-1009 L697A) above, with A84L, F246A counted along it
T4 sequence (Q8CJ12 614-1009 I677A): as the sequence (Q8CJ12 614-1009 L697A) above, with I64A, A84L counted along it

How did the EC50 (ADGRG2-ΔGPS-β F826A) turn out when CC[C@H](C)[C@H](NC(=O)CNC(=O)[C@H](Cc1ccc(C)cc1)NC(=O)[C@H](CO)NC(=O)[C@@H](N)C(C)C)C(=O)N[C@@H](CC(C)C)C(=O)N[C@@H](CC(C)C)C(=O)N[C@@H](CC(=O)O)C(=O)N[C@@H](CC(C)C)C(=O)N[C@@H](CO)C(=O)N[C@@H](CCCNC(=N)N)C(=O)N[C@H](C(=O)N[C@@H](CO)C(=O)N[C@@H](CC(C)C)C(=O)N1CCC[C@H]1C(=O)O)[C@@H](C)O [VPM-p15] (H-VS[Phe(4-Me)]GILLDLSRTSLP-OH) was run?
Its EC50 is 6600 nM.

And the EC50 (ADGRG2-ΔGPS-β F829A)?
The EC50 was 1160 nM.

And the EC50 (ADGRG2-ΔGPS-β F845A)?
The EC50 was 3210 nM.

What about the EC50 (ADGRG2-ΔGPS-β I663A) of the same molecule?
Its EC50 is 1200 nM.

What about the EC50 (ADGRG2-ΔGPS-β I730A) of the same molecule?
The EC50 was 1330 nM.

And the EC50 (ADGRG2-ΔGPS-β I741A)?
Its EC50 is 1550 nM.

And the EC50 (ADGRG2-ΔGPS-β I758A)?
The EC50 was 13800 nM.

What about the EC50 (ADGRG2-ΔGPS-β I844A) of the same molecule?
Its EC50 is 12900 nM.

What about the EC50 (ADGRG2-ΔGPS-β L665A) of the same molecule?
The EC50 was 1590 nM.

And the EC50 (ADGRG2-ΔGPS-β L679A)?
The EC50 was 1160 nM.

What about the EC50 (ADGRG2-ΔGPS-β L683A) of the same molecule?
Its EC50 is 1310 nM.

What about the EC50 (ADGRG2-ΔGPS-β M839A) of the same molecule?
The EC50 was 1720 nM.

And the EC50 (ADGRG2-ΔGPS-β N759A)?
Its EC50 is 4760 nM.

What about the EC50 (ADGRG2-ΔGPS-β S661A) of the same molecule?
The EC50 was 2320 nM.

And the EC50 (ADGRG2-ΔGPS-β S760A)?
The EC50 was 1950 nM.

And the EC50 (ADGRG2-ΔGPS-β V731A)?
Its EC50 is 1220 nM.

What about the EC50 (ADGRG2-ΔGPS-β V762A) of the same molecule?
The EC50 was 2350 nM.

What about the EC50 (ADGRG2-ΔGPS-β V774A) of the same molecule?
Its EC50 is 1280 nM.

What about the EC50 (ADGRG2-ΔGPS-β V834A) of the same molecule?
The EC50 was 1140 nM.

And the EC50 (ADGRG2-ΔGPS-β Y666A)?
Its EC50 is 1130 nM.
